This note sets out measurements from US7973032B2, “Staurosporine derivatives for use in alveolar rhabdomyosarcoma” (University of Zurich, priority 2005, dated 2011).

One assay has as its target T1, PAX3/FKHR (Homo sapiens, UniProt P23760+Q12778).
T1 construct: FKHR (FOXO1, Q12778) C-terminal portion as fusion partner; endogenous in cells
Briefly: expression of PAX3/FKHR specific target gene CB1. Format: cell-based. The following applies: upon treatment.

For assay [1], the system named is aRMS cells. Briefly: cell growth of aRMS cells in vitro. In kind it is cell-based. The source says: (§1) Recently, we have established a gene signature characteristic for the Pediatric sarcoma alveolar rhabdomyosarcoma (aRMS), which expresses the chimaeric fusion protein PAX3/FKHR due to a chromosomal translocation event t(2; 13). Based on this signature, a number of potential therapeutic target molecules have been selected for further study, such as FGFR2. […] Furthermore, tumor growth could also be inhibited in vivo using a mouse xenograft tumor model.

In a further assay the test system is aRMS. Briefly: mouse xenograft tumor model. The following applies: in vivo.
Description: as §1

The test system of assay [2] is aRMS cells. Briefly: apoptosis / caspase 3 activity in aRMS cells. In kind it is cell-based. The settings on record: aRMS cells in vitro.
Description: as §1

T1 sequence (P23760+Q12778 fused): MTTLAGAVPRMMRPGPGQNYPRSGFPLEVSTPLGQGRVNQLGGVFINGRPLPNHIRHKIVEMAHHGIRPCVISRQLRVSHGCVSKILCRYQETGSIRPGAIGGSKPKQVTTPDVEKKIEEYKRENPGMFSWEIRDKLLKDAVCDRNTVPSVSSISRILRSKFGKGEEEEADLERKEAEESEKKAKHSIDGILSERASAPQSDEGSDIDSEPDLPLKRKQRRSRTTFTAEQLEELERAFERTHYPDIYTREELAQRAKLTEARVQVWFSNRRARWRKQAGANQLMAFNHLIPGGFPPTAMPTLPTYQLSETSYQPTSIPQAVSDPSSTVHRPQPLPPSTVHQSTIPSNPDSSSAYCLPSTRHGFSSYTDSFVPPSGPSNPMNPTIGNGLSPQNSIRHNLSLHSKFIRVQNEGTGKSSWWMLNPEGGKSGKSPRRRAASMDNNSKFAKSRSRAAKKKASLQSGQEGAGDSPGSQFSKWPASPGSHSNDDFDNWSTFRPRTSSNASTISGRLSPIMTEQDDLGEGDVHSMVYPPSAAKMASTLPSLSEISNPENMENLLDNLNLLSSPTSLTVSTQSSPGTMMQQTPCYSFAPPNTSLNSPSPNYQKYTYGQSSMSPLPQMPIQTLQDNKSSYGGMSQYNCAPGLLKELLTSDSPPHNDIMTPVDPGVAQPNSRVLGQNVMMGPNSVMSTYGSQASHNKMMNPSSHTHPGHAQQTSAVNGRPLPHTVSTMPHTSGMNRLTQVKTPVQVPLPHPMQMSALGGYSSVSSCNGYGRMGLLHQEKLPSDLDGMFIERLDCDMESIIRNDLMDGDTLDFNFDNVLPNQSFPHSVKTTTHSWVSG

Regarding `CO[C@@H]1[C@H](N(C)C(=O)c2ccccc2)C[C@H]2O[C@]1(C)n1c3ccccc3c3c4c(c5c6ccccc6n2c5c31)C(=O)NC4` [PKC412, N-[(9S,10R,11R,13R)-2,3,10,11,12,13-hexahydro-10-methoxy-9-methyl-1-oxo-9,13-epoxy-1H,9H-diindolo[1,2,3-gh:3′,2′,1′-Im]pyrrolo[3,4-j][1,7]benzodiazonin-11-yl]-N-methylbenzamide], the CB1 expression entry at PAX3/FKHR was “completely abolished”. In addition, the “cell growth of aRMS cells” value in the assay with aRMS cells [1] is reported as “efficiently inhibit cell growth”. In the assay on aRMS, the tumor growth entry is listed as “inhibited”. In the assay with aRMS cells [2], the apoptosis entry is “induce apoptosis” and the “caspase 3 activity” value is listed as “enhanced caspase 3 activity”.
